Assay: xn = mol fraction of the nth substance listed
Settings: 101 kPa, Liquid

CCCCCCOC(C)=O [hexyl ethanoate] + C1COCCO1
Settings | mass density [kg/m3] | speed of sound [m/s] | viscosity [mPa·s]
298.15 K, x1 = 0.0546 | 1015 | 1312 | 1.143
298.15 K, x1 = 0.1152 | 1000.7 | 1292 | 1.131
298.15 K, x1 = 0.1825 | 985.9 | 1280 | 1.119
298.15 K, x1 = 0.2572 | 970.6 | 1268 | 1.106
298.15 K, x1 = 0.3416 | 954.6 | 1256 | 1.096
298.15 K, x1 = 0.4094 | 942.8 | 1248 | 1.093
298.15 K, x1 = 0.4773 | 931.9 | 1240 | 1.088
298.15 K, x1 = 0.5836 | 916.5 | 1236 | 1.08
298.15 K, x1 = 0.7044 | 900.8 | 1236 | 1.077
298.15 K, x1 = 1 | 868.3 | 1236 | 1.071
303.15 K, x1 = 0.0546 | 1009 | 1300 | 1.076
303.15 K, x1 = 0.1152 | 994.8 | 1280 | 1.063
303.15 K, x1 = 0.1825 | 979.9 | 1268 | 1.049
303.15 K, x1 = 0.2572 | 964.6 | 1256 | 1.037
303.15 K, x1 = 0.3416 | 948.8 | 1244 | 1.026
303.15 K, x1 = 0.4094 | 937.1 | 1236 | 1.019
303.15 K, x1 = 0.4773 | 926.4 | 1228 | 1.014
303.15 K, x1 = 0.5836 | 911.1 | 1224 | 1.005
303.15 K, x1 = 0.7044 | 895.7 | 1224 | 0.997
303.15 K, x1 = 1 | 863.9 | 1216 | 0.982
308.15 K, x1 = 0.0546 | 1003.4 | 1288 | 0.987
308.15 K, x1 = 0.1152 | 988.9 | 1268 | 0.975
308.15 K, x1 = 0.1825 | 974 | 1256 | 0.962
308.15 K, x1 = 0.2572 | 958.8 | 1244 | 0.951
308.15 K, x1 = 0.3416 | 943.2 | 1232 | 0.942
308.15 K, x1 = 0.4094 | 931.7 | 1224 | 0.935
308.15 K, x1 = 0.4773 | 921.1 | 1216 | 0.93
308.15 K, x1 = 0.5836 | 906 | 1212 | 0.921
308.15 K, x1 = 0.7044 | 890.8 | 1212 | 0.913
308.15 K, x1 = 1 | 859.8 | 1196 | 0.898
313.15 K, x1 = 0.0546 | 996.8 | 1280 | 0.935
313.15 K, x1 = 0.1152 | 982.2 | 1256 | 0.924
313.15 K, x1 = 0.1825 | 967.3 | 1244 | 0.912
313.15 K, x1 = 0.2572 | 952.3 | 1232 | 0.9
313.15 K, x1 = 0.3416 | 937 | 1216 | 0.889
313.15 K, x1 = 0.4094 | 925.7 | 1208 | 0.88
313.15 K, x1 = 0.4773 | 915.2 | 1204 | 0.874
313.15 K, x1 = 0.5836 | 900.3 | 1200 | 0.864
313.15 K, x1 = 0.7044 | 885.2 | 1200 | 0.855
313.15 K, x1 = 1 | 855 | 1176 | 0.836

C=COCCCC [1-(ethenyloxy)butane] + CCCCCCOC(C)=O
Settings | mass density [kg/m3] | speed of sound [m/s] | viscosity [mPa·s]
298.15 K, x2 = 0 | 780.2 | 1096 | 0.4
298.15 K, x2 = 0.0806 | 790.9 | 1100 | 0.44
298.15 K, x2 = 0.1668 | 801.3 | 1104 | 0.486
298.15 K, x2 = 0.2521 | 810.8 | 1112 | 0.538
298.15 K, x2 = 0.3443 | 820.3 | 1120 | 0.596
298.15 K, x2 = 0.4384 | 829.2 | 1128 | 0.657
298.15 K, x2 = 0.5392 | 838.1 | 1144 | 0.726
298.15 K, x2 = 0.644 | 846.6 | 1160 | 0.798
298.15 K, x2 = 0.7555 | 854.7 | 1180 | 0.879
298.15 K, x2 = 0.8741 | 862.1 | 1204 | 0.965
303.15 K, x2 = 0 | 774.1 | 1084 | 0.387
303.15 K, x2 = 0.0806 | 784.6 | 1088 | 0.423
303.15 K, x2 = 0.1668 | 795.1 | 1088 | 0.465
303.15 K, x2 = 0.2521 | 804.8 | 1096 | 0.508
303.15 K, x2 = 0.3443 | 814.5 | 1104 | 0.559
303.15 K, x2 = 0.4384 | 823.7 | 1112 | 0.615
303.15 K, x2 = 0.5392 | 832.8 | 1124 | 0.675
303.15 K, x2 = 0.644 | 841.3 | 1140 | 0.739
303.15 K, x2 = 0.7555 | 849.5 | 1160 | 0.812
303.15 K, x2 = 0.8741 | 857.1 | 1184 | 0.891
308.15 K, x2 = 0 | 768.2 | 1072 | 0.365
308.15 K, x2 = 0.0806 | 778.6 | 1072 | 0.398
308.15 K, x2 = 0.1668 | 789.1 | 1072 | 0.434
308.15 K, x2 = 0.2521 | 798.8 | 1076 | 0.474
308.15 K, x2 = 0.3443 | 808.7 | 1084 | 0.52
308.15 K, x2 = 0.4384 | 818.1 | 1092 | 0.567
308.15 K, x2 = 0.5392 | 827.4 | 1104 | 0.622
308.15 K, x2 = 0.644 | 836.3 | 1120 | 0.681
308.15 K, x2 = 0.7555 | 844.8 | 1140 | 0.745
308.15 K, x2 = 0.8741 | 852.7 | 1164 | 0.817
313.15 K, x2 = 0 | 763.3 | 1060 | 0.354
313.15 K, x2 = 0.0806 | 773.6 | 1056 | 0.385
313.15 K, x2 = 0.1668 | 784 | 1056 | 0.418
313.15 K, x2 = 0.2521 | 793.7 | 1060 | 0.454
313.15 K, x2 = 0.3443 | 803.6 | 1064 | 0.496
313.15 K, x2 = 0.4384 | 813 | 1072 | 0.538
313.15 K, x2 = 0.5392 | 822.3 | 1084 | 0.588
313.15 K, x2 = 0.644 | 831.2 | 1100 | 0.641
313.15 K, x2 = 0.7555 | 839.7 | 1120 | 0.7
313.15 K, x2 = 0.8741 | 847.7 | 1144 | 0.763

COc1ccccc1 [anisole] + CCCCCCOC(C)=O
x2 = 0
Settings | mass density [kg/m3] | speed of sound [m/s] | viscosity [mPa·s]
298.15 K | 993.6 | 1396 | 0.97
303.15 K | 989.4 | 1380 | 0.917
308.15 K | 984.6 | 1364 | 0.863
313.15 K | 980 | 1348 | 0.803
